The values that follow come from paper PMC10797614, “MYC-Targeting Inhibitors Generated from a Stereodiversified Bicyclic Peptide Library” (Journal of the American Chemical Society, 2024).

The target of one experiment is T1, MYC (Homo sapiens, UniProt P01106).
T1 construct: made in house; host or cells: E. coli BL21(DE3)
The experiment is described as follows: Temperature-dependent circular dichroism spectroscopy. As to conditions: NT-B2R 100 μM, MYC 0.1 mg/mL, 0.1 M phosphate buffer pH 7.4, 30 °C to 60 °C. The class given is binding. The source says: To further study the nature of the interaction between NT-B2R and MYC, we leveraged temperature-dependent circular dichroism (CD) spectroscopy. Here, if no conformation change was involved, the CD spectra of the MYC/NT-B2R mixture would be the addition of each component’s spectra (Figure 3J, calculated). However, we observed drastically different CD spectra (Figure 3J, measured and difference).
Protein thermal shift assay with GlomeltTM
Follow the Biotium’s protocol PI-3302133022. The reactions were set up in qPCR tubes, for each tube 1 μg recombinant MYC protein (1 μg/μL, 1 μL), GlomeltTM dye (10x, 2 μL), peptide ligand (2x, 10 uL, final concentration 500 μM), PBS (1x, 7 uL) to make a total volume of 20 μL with triplicate. For control group, PBS (1x, 17 μL) was used without peptide ligand. […] The resulting curve was fitted with a Boltzmann curve within the range of 45-60 °C and Tm was calculated from the fitted curve. […]
NT-B2R peptide and MYC protein were diluted to the final working concentrations of 100 μM and 0.1 mg/mL respectively. […] Spectra in the 180-280 nm range were recorded in a 1 mm path length cell.
The collected CD spectra were processed in OriginProTM. […] Spectra addition and subtraction were performed before the matrix conversion to generate the calculated and difference […]

Experiment [1] relates to MYC transcription activity (HALLAMRK MYC TARGETS V1 gene set). The experiment is described as follows: RNA-seq, differential expression (DESeq) and GSEA in U87 cells. It is filed as cell-based, human. As to conditions: treated vs vehicle, p-value < 0.001, FDR 0.005. The source says: To test whether NT-B2R directly affected MYC activity, we performed RNA-seq on the U87 cells and evaluated the differentially expressed genes using DESeq. […] A caveat here is that a global shift of transcription activities will not be observable by this analysis, due to the embedded normalization procedure.[38] Nevertheless, gene set enrichment analysis (GSEA) results highlighted that MYC target gene sets were enriched with high statistical significance and low false discovery probabilities, supporting that MYC was NT-B2R’s main target (Figure 4G).
U87 cells were seeded in six 100x20 mm cell culture dishes at 1000 k/dish and incubated for 24h in full DMEM medium containing 10% FBS and 1% PS. […]
Total RNA of the harvested cells was extracted and purified using the RNeasy Micro Kit (QIAGEN). Following the extraction, RNA integrity and quantitation were assessed using the RNA Nano 6000 Assay Kit on the Bioanalyzer 2100 system (Agilent Technologies). […] The obtained six library samples were pooled together and sequenced on a NovaSeq 6000 (Illumina) to reach approximately 30M 150bp pair-end reads per sample.
The obtained sequencing data was preprocessed using TrimGalore, aligned using STAR, and counted using HTSeq. […]

SMILES strings stand for the structures. *1 amine or outer side, *2 acyl side, *3 side chain or, on linkers, in order; H or OH if unused. Where a SMILES comes first, the peptide text is derived from it. Bridges are numbered along the chain shown (N, C = ends). X1 = O=C([C@@H]1C[C@H](C=CCO[*:3])C[C@@H]1C=CCO[*:1])[*:2]

T1 sequence (P01106 16-454): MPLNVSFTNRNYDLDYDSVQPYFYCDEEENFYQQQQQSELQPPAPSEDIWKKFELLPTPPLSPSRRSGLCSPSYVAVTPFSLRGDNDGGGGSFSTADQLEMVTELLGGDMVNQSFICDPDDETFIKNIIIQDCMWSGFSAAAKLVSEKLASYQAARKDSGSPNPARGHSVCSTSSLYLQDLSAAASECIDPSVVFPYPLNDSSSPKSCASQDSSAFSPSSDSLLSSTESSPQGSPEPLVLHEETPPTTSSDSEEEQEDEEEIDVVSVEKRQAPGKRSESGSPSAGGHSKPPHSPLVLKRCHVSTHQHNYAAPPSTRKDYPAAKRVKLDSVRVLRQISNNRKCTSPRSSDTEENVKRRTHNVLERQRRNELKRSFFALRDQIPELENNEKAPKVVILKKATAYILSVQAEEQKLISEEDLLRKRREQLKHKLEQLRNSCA

With `CC(C)C[C@@H]1NC(=O)[C@H](CCCNC(=N)N)NC(=O)[C@@H]2CCCCNC(=O)[C@@H]3C[C@H](C=CCOC(=O)CC[C@@H](C(N)=O)NC1=O)C[C@@H]3C=CCOC(=O)CC[C@H](N)C(=O)N[C@@H](Cc1c[nH]c3ccccc13)C(=O)N1CCC[C@H]1C(=O)N[C@@H](Cc1c[nH]cn1)C(=O)N[C@@H](CCCNC(=N)N)C(=O)N2` [NT-B2R] (H-EWPHRKRLE-NH2; linker 1-6-9 via X1; N-terminus and C-terminus assumed), the “CD spectra of MYC/peptide mixture versus calculated sum (in words)” value at MYC is given as “significant changes in the conformation landscape”. In addition, the “GSEA normalized enrichment score (NES), HALLAMRK MYC TARGETS V1” value in experiment [1] is reported as −5.955.
